In US6413517B1, “Identification of broadly reactive DR restricted epitopes” (Epimmune, Inc., priority 1997, dated 2002):
Like-named read-outs stand apart in the source and are kept apart here.

What was measured:
[1] = molecular target: T1, DRB1*1302 (DR6w19) (Homo sapiens, UniProt P01903+P01911, A100E/A169T/K41T/L162R/M171V/P40S/Q125H/Q178H/Q39Y/Q99D/R42S/S66N/T262R/V115G/W38E/Y61H); test: biochemical; assay type: binding
T1 construct: Epstein-Barr virus (EBV) transformed homozygous cell lines were used as sources; the source of Class II molecules the EBV transformed homozygous cell line H0301; endogenous in cells; host or cells: H0301 (EBV-transformed homozygous B cell line)

[2] = molecular target: T2, DRB1*0701 (DR7) (Homo sapiens, UniProt P01903+P01911, A100R/A102G/A103Q/D57E/D86V/E43K/F76Y/K127E/L162R/M171V/P40G/Q125H/Q99D/R33Q/R42Y/R54Q/S133A/S66F/T210M/V115G/Y107V/Y59L/Y89S); test: biochemical; assay type: binding
T2 construct: Epstein-Barr virus (EBV) transformed homozygous cell lines were used as sources; endogenous in cells; host or cells: PITOUT (EBV-transformed homozygous B cell line)

[3] = molecular target: T3, DRB1*1101 (DR5w11) (Homo sapiens, UniProt P01903+P01911, A100R/A169T/A87E/I96F/K41T/L162R/M171V/P40S/Q125H/Q178H/Q39Y/Q99D/R42S/S66Y/T262R/V115G/W38E); test: biochemical; assay type: binding
T3 construct: Epstein-Barr virus (EBV) transformed homozygous cell lines were used as sources; endogenous in cells; host or cells: SWEIG (EBV-transformed homozygous B cell line)

[4] = molecular target: T4, DRB1*0301 (DR3w17) (Homo sapiens, UniProt P01903+P01911, A100K/A102G/A103R/A169T/F55Y/I96L/K41T/L162R/M171V/P40S/Q125H/Q178H/Q39Y/R42S/S66N/T106N/T262R/W38E/Y61H); conditions: read-out: Binding Capacity (IC 50% nM) Other Alleles DR3
[5] = molecular target: T5, DRB1*0901 (DR9) (Homo sapiens, UniProt P01903+P01911, A100R/A103E/D57H/D86V/F55Y/F60I/F76Y/I96F/K127E/L162R/M171V/P40D/Q125H/Q99R/R33Q/R42F/S133A/S66N/T210M/V115G/W38K/Y107V/Y59G/Y89S); test: biochemical; assay type: binding
T5 construct: Epstein-Barr virus (EBV) transformed homozygous cell lines were used as sources; endogenous in cells

[6] = molecular target: T6, DRB1*0401 (DR4w4) (Homo sapiens, UniProt P01903+P01911, A100K/A169T/F76Y/I96L/K127E/L162R/M171V/N62H/P40V/Q125Y/R42H/S133A/S149N/S66Y/V115G/V209L/W38E); test: biochemical; assay type: binding; conditions: Binding Capacity (IC 50% nM) DR1,4,7 DR4w4
T6 construct: Epstein-Barr virus (EBV) transformed homozygous cell lines were used as sources; endogenous in cells; host or cells: PREISS (EBV-transformed homozygous B cell line)

[7] = molecular target: T4, DRB1*0301 (DR3w17); test: biochemical; conditions: Binding Capacity (IC50% nM) DR3
[8] = molecular target: T7, DRB1*0405 (DR4w15) (Homo sapiens, UniProt P01903+P01911, A100R/A169T/D86S/F76Y/I96L/K127E/L162R/M171V/N62H/P40V/Q125Y/R42H/S133A/S149N/S66Y/V115G/V209L/W38E); test: biochemical; assay type: binding
T7 construct: Epstein-Barr virus (EBV) transformed homozygous cell lines were used as sources; endogenous in cells; host or cells: KT3 (EBV-transformed homozygous B cell line)

[9] = molecular target: T8, DRB5*0101 (DR2w2a) (Homo sapiens, UniProt P01903+Q30154); test: biochemical; assay type: binding
T8 construct: Epstein-Barr virus (EBV) transformed homozygous cell lines were used as sources; endogenous in cells; host or cells: GM3107 (EBV-transformed homozygous B cell line)

[10] = molecular target: T9, DRB1*0802 (DR8w2) (Homo sapiens, UniProt P01903+P01911, A100R/A103L/A169T/F76Y/H45Y/I96F/K41T/L162R/M171V/P40S/Q125H/Q178H/Q39Y/Q99D/R218S/R42G/S66Y/V115G/W38E); test: biochemical; assay type: binding
T9 construct: Epstein-Barr virus (EBV) transformed homozygous cell lines were used as sources; endogenous in cells; host or cells: OLL (EBV-transformed homozygous B cell line)

[11] = molecular target: T10, DRB1*0101 (DR1) (Homo sapiens, UniProt P01903+P01911, A100R/D57E/F55L/F60I/F76Y/I96L/L162R/M171V/P40L/Q125E/R42F/V115G/Y59C); test: biochemical; assay type: binding; conditions: Binding Capacity (IC 50% nM) DR1,4,7 DRB1
T10 construct: Epstein-Barr virus (EBV) transformed homozygous cell lines were used as sources; endogenous in cells; host or cells: LG2 (EBV-transformed homozygous B cell line)

[12] = molecular target: T11, DRB1*1501 (DR2w2b) (Homo sapiens, UniProt P01903+P01911); test: biochemical; assay type: binding
T11 construct: expressed in transfected cells; host or cells: transfected fibroblasts L466.1

[13] = molecular target: T12, DRB1*1201 (DR5w12) (Homo sapiens, UniProt P01903+P01911, A100R/A169T/D57E/D86V/F55L/H45Y/K41T/L162R/M171V/P40S/Q125H/Q178H/Q39Y/Q99D/R42G/S66L/T262R/V114A/V67L/W38E/Y59H/Y61H/Y89S); test: biochemical; assay type: binding
T12 construct: Epstein-Barr virus (EBV) transformed homozygous cell lines were used as sources; endogenous in cells; host or cells: Herluf (EBV-transformed homozygous B cell line)

[14] = Binding Capacity (IC50% nM) DR6w19
[15] = read-out: Binding Capacity (IC 50% nM) Other Alleles DR6w19
[16] = read-out: Binding Capacity (IC 50% nM) Other Alleles DR5w11
[17] = Binding Capacity (IC 50% nM) Other Alleles DR2w2a
[18] = Binding Capacity (IC50% nM) DR8w2
[19] = read-out: Binding Capacity (IC 50% nM) Other Alleles DR8w2
[20] = Binding Capacity (IC50% nM) DR5w12
[21] = read-out: Binding Capacity (IC 50% nM) Other Alleles DR5w12
[22] = Binding Capacity (IC 50% nM) DR1,4,7 DR7
[23] = Binding Capacity (IC 50% nM) Other Alleles DR9
[24] = Binding Capacity (IC 50% nM) Other Alleles DR4w15
[25] = read-out: Binding Capacity (IC 50% nM) Other Alleles DR2w2b
[26] = Binding Capacity (IC 50% nM) Other Alleles DR6w19
[27] = Binding Capacity (IC 50% nM) Other Alleles DR5w11
[28] = Binding Capacity (IC 50% nM) Other Alleles DR8w2

T3 sequence (P01903 26-254, other chains not shown): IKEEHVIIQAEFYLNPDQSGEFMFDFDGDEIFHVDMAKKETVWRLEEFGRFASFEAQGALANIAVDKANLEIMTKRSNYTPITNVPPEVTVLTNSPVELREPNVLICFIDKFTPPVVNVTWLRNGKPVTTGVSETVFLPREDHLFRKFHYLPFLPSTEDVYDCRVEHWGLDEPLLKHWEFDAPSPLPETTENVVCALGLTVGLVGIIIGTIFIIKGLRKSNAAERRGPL

SMILES | IC50 [1, 14] [nM] | IC50 [1, 15] [nM] | IC50 [3, 16] [nM] | IC50 [4] [nM] | IC50 [6] [nM] | IC50 [7] [nM] | IC50 [9, 17] [nM] | IC50 [10, 18] [nM] | IC50 [10, 19] [nM] | IC50 [11] [nM] | IC50 [13, 20] [nM] | IC50 [13, 21] [nM] | IC50 [2, 22] [nM] | IC50 [5, 23] [nM] | IC50 [8, 24] [nM] | IC50 [12, 25] [nM] | IC50 [1, 26] [nM] | IC50 [3, 27] [nM] | IC50 [10, 28] [nM] | other results
CC[C@H](C)[C@H](NC(=O)[C@H](CC(C)C)NC(=O)[C@H](CC(=O)O)NC(=O)[C@@H](NC(=O)[C@H](Cc1ccccc1)NC(=O)[C@H](Cc1ccc(O)cc1)NC(=O)[C@H](Cc1c[nH]cn1)NC(=O)[C@H](Cc1c[nH]cn1)NC(=O)[C@@H](N)[C@@H](C)O)C(C)C)C(=O)NCC(=O)NCC(=O)N[C@@H](C)C(=O)N[C@@H](CCSC)C(=O)N[C@@H](CC(C)C)C(=O)N[C@@H](CO)C(=O)N[C@@H](CC(C)C)C(=O)O [Peptide 1136.47] | > 10000 | > 1000 | > 1000 | > 1000 | < 1000 | > 10000 | < 1000 | > 10000 | > 1000 | < 1000 | > 10000 | > 1000 | – | – | – | – | – | – | – | IC50 ([2]; read-out: Binding Capacity (IC 50% nM) DR1,4,7 DR7): > 1000 nM; IC50 ([5]; Binding Capacity (IC50% nM) DR9): > 10000 nM; IC50 ([5]; read-out: Binding Capacity (IC 50% nM) Other Alleles DR9): > 1000 nM; IC50 ([8]; read-out: Binding Capacity (IC 50% nM) Other Alleles DR4w15): > 1000 nM; IC50 ([12]; Binding Capacity (IC 50% nM) Other Alleles DR2w2b): < 1000 nM
CC(C)[C@H](NC(=O)[C@H](CO)NC(=O)[C@@H](NC(=O)[C@H](C)NC(=O)[C@H](CO)NC(=O)[C@H](CO)NC(=O)[C@H](C)NC(=O)[C@H](C)NC(=O)[C@H](Cc1ccc(O)cc1)NC(=O)[C@@H](NC(=O)[C@H](CO)NC(=O)CNC(=O)[C@H](CCC(N)=O)NC(=O)[C@@H]1CCCN1C(=O)[C@@H](N)CCC(=O)O)[C@@H](C)O)[C@@H](C)O)C(=O)N[C@@H](CC(=O)O)C(=O)O [Peptide 1136.71] | > 10000 | > 1000 | > 1000 | > 1000 | < 1000 | > 10000 | – | > 10000 | > 1000 | < 1000 | > 10000 | > 1000 | < 1000 | < 1000 | < 1000 | > 1000 | – | – | – | IC50 ([9]; read-out: Binding Capacity (IC 50% nM) Other Alleles DR2w2a): > 1000 nM; IC50 ([12]; Binding Capacity (IC50% nM) DR2w2b): > 10000 nM
CC(C)C[C@H](NC(=O)[C@H](CC(C)C)NC(=O)CNC(=O)[C@H](C)NC(=O)[C@H](CC(C)C)NC(=O)[C@@H](NC(=O)[C@H](CO)NC(=O)[C@@H](NC(=O)[C@H](C)NC(=O)[C@H](CC(C)C)NC(=O)[C@H](CCCCN)NC(=O)[C@H](Cc1ccc(O)cc1)NC(=O)[C@H](CCCCN)NC(=O)[C@H](CO)NC(=O)[C@@H](N)CCCCN)[C@@H](C)O)C(C)C)C(=O)O [Peptide 1188.16] | – | – | – | > 1000 | < 1000 | > 10000 | < 1000 | – | – | < 1000 | > 10000 | > 1000 | < 1000 | < 1000 | < 1000 | > 1000 | < 1000 | < 1000 | < 1000 | –
CC(C)C[C@H](NC(=O)CNC(=O)[C@H](C)NC(=O)[C@H](CC(C)C)NC(=O)[C@@H](NC(=O)[C@H](CO)NC(=O)[C@@H](NC(=O)[C@H](C)NC(=O)[C@H](CC(C)C)NC(=O)[C@H](CCCCN)NC(=O)[C@H](Cc1ccc(O)cc1)NC(=O)[C@@H](N)CCCCN)[C@@H](C)O)C(C)C)C(=O)N[C@@H](CC(C)C)C(=O)NCC(=O)N[C@@H](CC(N)=O)C(=O)O [Peptide F107.09] | – | – | – | > 1000 | < 1000 | > 10000 | < 1000 | – | – | < 1000 | > 10000 | > 1000 | < 1000 | < 1000 | < 1000 | > 1000 | < 1000 | < 1000 | < 1000 | –
